The values that follow are results of earlier work, collected in patent US20240360091A1, “GLUN2B-SUBUNIT SELECTIVE ANTAGONISTS OF THE N-METHYL-D-ASPARTATE RECEPTORS WITH ENHANCED POTENCY AT ACIDIC PH” (Emory University, priority 2021, published 2024).

Data set [1] has as its system nonhuman primates. The conditions noted are these: acute administration; cited from earlier work.
Data set [2] relates to GluN2B. The following applies: between pH 6.8 and pH 7.5; cited from earlier work.

Take `C[C@@H]([C@@H](O)c1ccc(O)cc1)N1CCC(O)(c2ccccc2)CC1` [traxoprodil]: the “cognitive effects in nonhuman primates” value in data set [1] was “produced cognitive impairments in a dose-dependent manner”. The “pH sensitivity for inhibition of receptors” value in data set [2] is listed as “does not possess a significant pH sensitivity”.
